Where two headings read alike, the source gives them in different places.
Tests used:
[1] = brain penetration in mouse brain metastatic tumor model (LC-MS, MALDI IMS); type: in vivo, mice; settings: for Bulk Brain Homogenate Avg, adjusted free concentration / Bulk Brain Homogenate Avg, total concentration: LC-MS; for Bulk Brain Homogenate Avg, adjusted free concentration / Bulk Brain Homogenate Avg, total concentration / concentration at 2 h: 2 hr post final dose; for concentration at 2 h: plasma, po QD 5 days, niraparib 35 mg/kg, olaparib 50 mg/kg, read-out: Terminal Plasma Avg, total concentration
Source text: Female mice (CrTac:NCr-Foxnlnu; 6 w/o) received 2.5E5 luciferase transfected human breast cancer line (MDA 231-BRM2-831) via intracardiac injection. Mice were imaged twice/week using bioluminescence imaging (BLI) to monitor tumor growth. […] Tissue collected between each imaging plane was homogenized for LC-MS bioanalysis.

[2] = brain penetration in healthy Rhesus macaque monkeys (LC-MS, MALDI IMS); type: in vivo; settings: for Bulk Brain Homogenate, adjusted free concentration / Bulk Brain Homogenate, total concentration: LC-MS; for Terminal CSF / Terminal Plasma, adjusted free concentration: at necropsy; for Kp, uu Brain/Plasma: from bulk brain homogenate and terminal plasma free concentrations
Procedure: Pre-dose blood was collected daily and terminal blood, cerebrospinal fluid (CSF), and brain tissue was collected at necropsy. […] Blood, CSF, and bulk homogenates of brain tissue were analyzed by LC-MS bioanalysis.

Compound: O=C(c1cc(Cc2n[nH]c(=O)c3ccccc23)ccc1F)N1CCN(C(=O)C2CC2)CC1 [olaparib]
- Bulk Brain Homogenate Avg, adjusted free concentration ([1]; BM mice): 2 ng/g
- Bulk Brain Homogenate Avg, total concentration ([1]; BM mice): 11 ng/g
- Bulk Brain Homogenate Avg, adjusted free concentration ([1]; Control mice): 2 ng/g
- Bulk Brain Homogenate Avg, total concentration ([1]; Control mice): 12 ng/g
- Kp, uu Brain ([1]; Control mice, from bulk brain homogenate and terminal plasma free concentrations): 0.02
- Kp uu at 2 h post final dose ([1]; female, CrTac:NCr-Foxnlnu, mouse, oral, BM mice, from bulk brain homogenate and terminal plasma free concentrations): 0.03
- concentration at 2 h ([1]; female, CrTac:NCr-Foxnlnu, mouse, oral, BM (brain metastases) mice): 254 ng/mL
- concentration at 2 h ([1]; female, CrTac:NCr-Foxnlnu, mouse, oral, Control mice): 322 ng/mL
- MALDI IMS Brain Section Average, total concentration ([2]; Monkey 1): BLQ
- Pre-Dose Plasma, total concentration ([2]; Monkey 1, Day 1, po daily 5 days, niraparib 6 mg/kg, olaparib 10 mg/kg): BQL
- Pre-Dose Plasma, adjusted free concentration ([2]; Monkey 1, Day 2): 8 ng/mL
- Pre-Dose Plasma, total concentration ([2]; Monkey 1, Day 2): 27 ng/mL
- Pre-Dose Plasma, adjusted free concentration ([2]; Monkey 1, Day 3): 8 ng/mL
- Pre-Dose Plasma, total concentration ([2]; Monkey 1, Day 3): 26 ng/mL
- Pre-Dose Plasma, adjusted free concentration ([2]; Monkey 1, Day 4): 10 ng/mL
- Pre-Dose Plasma, total concentration ([2]; Monkey 1, Day 4): 33 ng/mL
- Pre-Dose Plasma, adjusted free concentration ([2]; Monkey 1, Day 5): (10) ng/mL
- Pre-Dose Plasma, total concentration ([2]; Monkey 1, Day 5): 33 ng/mL
- Bulk Brain Homogenate, adjusted free concentration ([2]; Monkey 1): (2) ng/g
- Bulk Brain Homogenate, total concentration ([2]; Monkey 1): 12 ng/g
- Terminal CSF ([2]; Monkey 1): 13 ng/mL
- Terminal Plasma, adjusted free concentration ([2]; Monkey 1): (99) ng/mL
- Kp, uu Brain/Plasma ([2]; Monkey 1): 0.02
- MALDI IMS Brain Section Average, total concentration ([2]; Monkey 2): BLQ
- Pre-Dose Plasma, total concentration ([2]; Monkey 2, Day 1, po daily 5 days, niraparib 6 mg/kg, olaparib 10 mg/kg): BQL
- Pre-Dose Plasma, adjusted free concentration ([2]; Monkey 2, Day 2): 16 ng/mL
- Pre-Dose Plasma, total concentration ([2]; Monkey 2, Day 2): 51 ng/mL
- Pre-Dose Plasma, adjusted free concentration ([2]; Monkey 2, Day 3): 5 ng/mL
- Pre-Dose Plasma, total concentration ([2]; Monkey 2, Day 3): 17 ng/mL
- Pre-Dose Plasma, adjusted free concentration ([2]; Monkey 2, Day 4): 16 ng/mL
- Pre-Dose Plasma, total concentration ([2]; Monkey 2, Day 4): 53 ng/mL
- Pre-Dose Plasma, adjusted free concentration ([2]; Monkey 2, Day 5): (14) ng/mL
- Pre-Dose Plasma, total concentration ([2]; Monkey 2, Day 5): 45 ng/mL
- Bulk Brain Homogenate, adjusted free concentration ([2]; Monkey 2): (2) ng/g
- Bulk Brain Homogenate, total concentration ([2]; Monkey 2): 11 ng/g
- Terminal CSF ([2]; Monkey 2): 6 ng/mL
- Terminal Plasma, adjusted free concentration ([2]; Monkey 2): (78) ng/mL
- Kp, uu Brain/Plasma ([2]; Monkey 2): 0.03
- detection and distribution in coronal brain sections by MALDI IMS ([2]; healthy Rhesus macaque monkeys, five days oral administration): not detected
- Mean Kp, uu Brain/Plasma ([2]; mean of Monkey 1 and 2): 0.02

Source: patent US20250352534A1 (Tesaro, Inc., priority 2022, published 2025)
